Measured values from patent publication US20210299079A1, “MONOMETHYL FUMARATE-CARRIER CONJUGATES AND METHODS OF THEIR USE” (Flagship Pioneering Innovations V, Inc., priority 2018, published 2021).
Where a name gives a salt, the structure may show the parent alone. Values belong to the compound of their own block, whether it stands above or below them.

Tests used:
[1] = In vitro Colonic Material Stability Assay; assay type: in vitro ADME; conditions: colonic material slurry in YCFAC media, anaerobic, 1 or 10 μM
Description: Assay 3. In vitro Colonic Material Stability Assay. This assay was used to assess the stability of a conjugate in a large intestine. All experiments were performed in an anaerobic chamber containing 90% nitrogen, 5% hydrogen and 5% carbon dioxide. Colonic material was resuspended as a slurry (15% w/v final concentration) in pre-reduced, anaerobically sterilized dilution blanks (Anaerobe Systems AS-908). The colonic material was then inoculated into 96 well plates containing YCFAC media (Anaerobe Systems AS-680) or other suitable media (6.7 μL slurry into 1 mL total media). Compounds or groups of compounds were added to each individual well to reach a final analyte concentration of 1 or 10 μM, and the material was mixed by pipetting. Sample was removed after set timepoints (0, 120, 240, 480, 1440, 2880 minutes after initiation of the assay), quenched with acetonitrile containing internal standard, and analyzed by LC/MS.

[2] = Stability of conjugates in Simulated Gastric Fluid (SGF); assay type: in vitro ADME; conditions: SGF pH 1.6 with pepsin, 37° C., 1 μM compound
Summary of the method: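 Compound at 1 μM (from 1 mM DMSO stock) in pH 1.6 NaCl medium with FaSSIF powder and 0.1 mg/mL pepsin, mixed at 37° C. Aliquots quenched with equal volume acetonitrile at T0 and regular intervals; LC/MS gives degradation rate.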

[3] = Stability of conjugates in Simulated Intestinal Fluid (SIF); assay type: in vitro ADME; conditions: SIF pH 6.7 with pancreatin, 37° C., 1 μM compound
Summary of the method: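 Compounds at 1 μM in fresh simulated intestinal fluid: FaSSIF powder in pH 6.7 phosphate buffer with pancreatin. Agitated at 37 °C; aliquots taken at T0 and regular intervals, quenched with 1 volume acetonitrile. Degradation rates determined by LC/MS.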

[4] = tested on: experimental autoimmune encephalomyelitis (EAE); assay: In Vivo EAE Model of Multiple Sclerosis; design: species or system C57BL/6J mice; conditions: Study 2, oral, amount approximately equimolar to 100 mg/kg DMF, 28 days
Description: For experimental autoimmune encephalomyelitis (EAE) study, 8- to 11-week-old C57BL/6J mice were anesthetized and subcutaneously injected with […] and […]. Pertussis toxin (200 ng/mouse) was applied i.p. on days 0. Daily clinical evaluation was performed via a 5-point scale, and the clinical progression was observed over 28 days (FIG. 2A). […] At the end of the study, flow cytometry analysis was performed on the spleen (n=8 per group). […] Statistical analysis was performed with GraphPad Prism (GraphPad Software). Unpaired t test was used to assess significance between the control (Vehicle) and each treatment group. For experimental autoimmune encephalomyelitis (EAE) studies, 8- to 11-week old C57BL/6J mice were anesthetized and subcutaneously injected with […] and […]. Pertussis toxin (200 ng/mouse) was applied intraperitoneally on day 0. Daily clinical evaluation as performed using a 5-point scale and the clinical progression was observed over 28 days (FIGS. 2C and 2D).

MIP-1α = assay: Neutrophil Chemokine Production Assay: MIP-1α; assay type: cell-based; conditions: human neutrophils, 12 h
Description: (§1) A volume 25 mL of human blood was layered over 15 mL of Histopaque®-1077 and centrifuged at 500 g, R^T, for 30 min with no break applied to the centrifuge. The PBMC band and Histopaque®-1077 layer were removed leaving behind the bottom red layer which was mixed with 40 mL of 1× red blood cell (RBC) lysis buffer (Sigma-Aldrich) was and split into two 50 mL tubes. The volume for both fractions was brought to 50 mL with RBC lysis buffer, mixed by inversion, and then incubated at RT for 10 min. Solutions were centrifuged at 250 g, for 10 min at RT and the supernatant liquids removed. The reddish pellets were re-suspended in 1 mL of RBC lysis buffer and combined. The cell suspension was incubated for 5 min at RT in RBC lysis buffer. After incubation 45 mL of Hanks Balanced Salt Solution with no calcium, magnesium or phenol red (HBSS—) was added, the cell suspension was spun (250 g for 10 min at RT), and supernatant liquids were removed. The white pellet was re-suspended in 1 mL of HBSS—, and cell counts were determined. The neutrophil cell suspension was brought to a concentration of 1.11e6 cells/mL in RPMI complete (Sigma-Aldrich), and 180 μL of cell suspension was transferred to all wells within a sterile 96-well tissue culture treated plate resulting in 2.0×10^5 cells/well. […] After incubation, 10 μL of 2 μg/mL LPS solution in RPMI complete was added to each well except for control wells, which received an additional 10 μL of media. Cells were incubated for 12 h (37° C., 5% CO2), after which plates were centrifuged at 250 g, RT, for 5 min and supernatant liquids were obtained and stored at −80° C. until analyzed via Luminex® Multiplex Assay for various chemokines and cytokines. Three data points were acquired from two different blood donors and averaged.

MIP-1β = assay: Neutrophil Chemokine Production Assay: MIP-1β; assay type: cell-based; conditions: human neutrophils, 12 h
Description: as §1

IL-8 = assay: Neutrophil Chemokine Production Assay: IL-8; assay type: cell-based; conditions: human neutrophils, 12 h
Description: as §1

[5] = Gastrointestinal (GI) Exposure to Monomethylfumarate (MMF) (Study 2); assay type: in vivo, CD-1 mice; conditions: mouse, samples of Study 1, single oral dose
Description: (§2) In order to measure propionate concentrations along the GI track, CD-1 mice were orally administered a single dose of deuterated sodium propionate, Compound 3 comprising deuterated propionate, or Compound 6 comprising deuterated propionate (Propionate-d3, Compound 3-d12, and Compound 6-d9, respectively; suspension, 1% (w/v) methyl cellulose in deionized water). The amounts of compound dosed were normalized to provide approximately equimolar amounts of […] (Propionate-d3 at 62 mg/kg, Compound 3-d12 at 110 mg/kg, and Compound 6-d9 at 91 mg/kg). […] Blood samples were collected in K2EDTA tubes and stored on wet ice no more than 30 min and then further processed to plasma. GI samples were placed into separate labeled, pre-weighted collection tubes and frozen before analysis. Brain samples were homogenized prior to analysis. Samples were subsequently worked up and analyzed by LC-MS/MS for deuterated propionate concentration. Propionate concentrations versus time for different tissues are depicted in FIGS. 4A-4H and 5A-5C.
Samples from Example 6, Study 1 were also analyzed by LC-MS/MS for monomethylfumarate concentrations. MMF concentrations versus time for different tissues are depicted in FIGS. 6A-6F.

[6] = Gastrointestinal (GI) Exposure to Propionate (Study 1); assay type: in vivo, CD-1 mice; conditions: mouse; for Propionate-d3 AUClast / Propionate-d3 Tmax: single oral dose: Propionate-d3 62 mg/kg, Compound 3-d12 110 mg/kg, Compound 6-d9 91 mg/kg
Description: as §2

SMILES: CCC(=O)OC[C@H]1O[C@@H](OC(=O)/C=C/C(=O)OC)[C@H](OC(=O)CC)[C@@H](OC(=O)CC)[C@@H]1OC(=O)CC [Compound 3, Methyl ((2S,3R,4S,5R,6R)-3,4,5-tris(propionyloxy)-6-((propionyloxy)methyl)tetrahydro-2H-pyran-2-yl) fumarate]
Assay 3 (% Remaining at 24 h) [1]: C (C: >75% of the tested compound remaining)
Assay 1 (SGF) (% Remaining @ 1 hour) [2]: C (C: >75% of the tested compound remaining)
Assay 2 (SIF) (% @ Remaining 4 hours) [3]: B (B: 25-75% of the tested compound remaining)
EAE score (5-point scale) compared to control (vehicle only) [4]: lower EAE scores
EAE score (5-point scale) compared to mice treated with dimethyl fumarate [4]: lower or similar EAE scores

SMILES: CC(O)CC(=O)O (stereo not drawn) [β-hydroxybutyric acid]
% MIP-1α (Vehicle + LPS = 100%) (MIP-1α; Conc. 200.0 μM): − (− = >90% Vehicle)
% MIP-1α (Vehicle + LPS = 100%) (MIP-1α; Conc. 2000.0 μM): ++ (++ = <70% Vehicle)
% MIP-1β (DMSO + LPS = 100%) (MIP-1β; Conc. 200.0 μM): + (+ = <90% Vehicle)
% MIP-1β (DMSO + LPS = 100%) (MIP-1β; Conc. 2000.0 μM): + (+ = <90% Vehicle)
% IL-8 (Vehicle + LPS = 100%) (IL-8; Conc. 200.0 μM): − (− = >90% Vehicle)
% IL-8 (Vehicle + LPS = 100%) (IL-8; Conc. 2000.0 μM): + (+ = <90% Vehicle)

SMILES: CCCC(=O)O[C@@H]1[C@@H](OC(=O)CCC)[C@H](C)O[C@@H](OC(=O)/C=C/C(=O)OC)[C@@H]1OC(=O)CCC [Compound 15, Methyl ((2S,3R,4R,5S,6S)-3,4,5-tris(butyryloxy)-6-methyltetrahydro-2H-pyran-2-yl) fumarate]
Assay 3 (% Remaining at 24 h) [1]: C (C: >75% of the tested compound remaining)
Assay 1 (SGF) (% Remaining @ 1 hour) [2]: B (B: 25-75% of the tested compound remaining)
Assay 2 (SIF) (% @ Remaining 4 hours) [3]: A (A: <25% of the tested compound remaining)
EAE score (5-point scale) compared to control (vehicle only) [4]: lower EAE scores

SMILES: CCC(=O)O[C@H]1[C@H](OC(=O)CC)[C@H](OC(=O)/C=C/C(=O)OC)O[C@@H](C)[C@H]1OC(=O)CC [Compound 1, Methyl ((2S,3S,4R,5R,6S)-6-methyl-3,4,5-tris(propionyloxy)tetrahydro-2H-pyran-2-yl) fumarate]
Assay 3 (% Remaining at 24 h) [1]: C (C: >75% of the tested compound remaining)
Assay 1 (SGF) (% Remaining @ 1 hour) [2]: C (C: >75% of the tested compound remaining)
EAE score (5-point scale) compared to control (vehicle only) [4]: lower EAE scores

SMILES: CCC(=O)O[C@@H]1[C@@H](OC(=O)CC)[C@H](OC(=O)/C=C/C(=O)OC)OC[C@H]1OC(=O)CC [Compound 20, Methyl ((2S,3R,4S,5R)-3,4,5-tris(propionyloxy)tetrahydro-2H-pyran-2-yl) fumarate]
Assay 3 (% Remaining at 24 h) [1]: C (C: >75% of the tested compound remaining)
Assay 1 (SGF) (% Remaining @ 1 hour) [2]: C (C: >75% of the tested compound remaining)
Assay 2 (SIF) (% @ Remaining 4 hours) [3]: A (A: <25% of the tested compound remaining)
EAE score (5-point scale) compared to control (vehicle only) [4]: lower EAE scores

SMILES: CCCC(=O)O[C@H]1[C@H](OC(=O)/C=C/C(=O)OC)OC[C@@H](OC(=O)CCC)[C@H]1OC(=O)CCC [Compound 24, Methyl ((2S,3R,4R,5R)-3,4,5-tris(butyryloxy)tetrahydro-2H-pyran-2-yl) fumarate]
Assay 1 (SGF) (% Remaining @ 1 hour) [2]: C (C: >75% of the tested compound remaining)
Assay 2 (SIF) (% @ Remaining 4 hours) [3]: A (A: <25% of the tested compound remaining)
EAE score (5-point scale) compared to control (vehicle only) [4]: lower EAE scores

MMF AUClast ([5]; Cecum): 297 nmol·h/g
MMF Tmax ([5]; Cecum): 2.00 h
MMF AUClast ([5]; Distal Colon): 568 nmol·h/g
MMF Tmax ([5]; Distal Colon): 4.00 h
MMF AUClast ([5]; Distal Intestine): 156 nmol·h/g
MMF Tmax ([5]; Distal Intestine): 1.00 h
MMF AUClast ([5]; Proximal Colon): 465 nmol·h/g
MMF Tmax ([5]; Proximal Colon): 2.00 h
MMF AUClast ([5]; Proximal Intestine): 56.4 nmol·h/g
MMF Tmax ([5]; Proximal Intestine): 0.50 h
MMF AUClast ([5]; Stomach): 3180 nmol·h/g
MMF Tmax ([5]; Stomach): 1.00 h
Propionate-d3 AUClast ([6]; Brain): 1.18 nmol·h/g
Propionate-d3 Tmax ([6]; Brain): 0.25 h
Propionate-d3 AUClast ([6]; Cecum): 4010 nmol·h/g
Propionate-d3 Tmax ([6]; Cecum): 2.00 h
Propionate-d3 AUClast ([6]; Distal Colon): 2310 nmol·h/g
Propionate-d3 Tmax ([6]; Distal Colon): 4.00 h
Propionate-d3 AUClast ([6]; Distal Intestine): 3880 nmol·h/g
Propionate-d3 Tmax ([6]; Distal Intestine): 1.00 h
Propionate-d3 AUClast ([6]; Proximal Colon): 2910 nmol·h/g
Propionate-d3 Tmax ([6]; Proximal Colon): 2.00 h
Propionate-d3 AUClast ([6]; Proximal Intestine): 3160 nmol·h/g
Propionate-d3 Tmax ([6]; Proximal Intestine): 0.25 h
Propionate-d3 AUClast ([6]; Stomach): 4950 nmol·h/g
Propionate-d3 Tmax ([6]; Stomach): 1.00 h
region where the highest concentrations (Cmax) of propionate-d3 were observed ([6]; single oral dose, GI tissues): intestines (proximal and distal)
SMILES: [2H]C([2H])([2H])CC(=O)OCC1OC(OC(=O)C=CC(=O)OC)C(OC(=O)CC([2H])([2H])[2H])C(OC(=O)CC([2H])([2H])[2H])C1OC(=O)CC([2H])([2H])[2H] (stereo not shown) [Compound 3-d12]
